Experimental data published in publication PMC10786036 (2023).

Key:
[1] = test system: c-MYC (DNA, G4) TGAGGGTGGGTAGGGTGGGTAA; test: fluorescence lifetime; details: 100 mM LiCl; 10 mM Tris-HCl pH 7.4; lifetime 1.3 ns lower than in K+
[2] = test system: TRF2 (RNA, G4) CGGGAGGGCGGGGAGGGC; test: fluorescence lifetime; details: 100 mM KCl; 10 mM Tris-HCl pH 7.4; 2 µM TOR-G4; lifetime rises with G4 RNA in totRNA

- binding [1]: yes
- binding [2]: yes
Compound: COc1ccc2c(c1)N(C)C(=Cc1cc(/C=C/c3ccc(N(C)C)cc3)[n+](C)c3ccccc13)S2
